Test results as given in PMC9866588, “Novel 7-Chloro-4-aminoquinoline-benzimidazole Hybrids as Inhibitors of Cancer Cells Growth: Synthesis, Antiproliferative Activity, in Silico ADME Predictions, and Docking” (Molecules, 2023).

Assays:
[1] = system: MDCK1 (Madine–Darby canine kidney) cells; experiment: MTT antiproliferative assay, MDCK1; format: cell-based; conditions: Canis lupus familiaris, MDCK1, 72 h, mean ± SD of three independent experiments
Description: (§1) The growth inhibition activity was assessed according to the slightly modified procedure performed at the National Cancer Institute, Developmental Therapeutics Program.
(§2) The examined compounds were dissolved in DMSO (1 × 10^−2 M). The experiments were carried out on seven human tumor cell lines and a normal cell line. The following cell lines were used: HeLa (human cervical adenocarcinoma; purchased from ATCC), CaCo-2 (human colorectal adenocarcinoma), MCF-7 (human breast adenocarcinoma), CCRF-CEM (human acute lymphoblastic leukemia), Hut78 (T-cell lymphoma), THP-1 (acute monocytic leukemia), Burkitt lymphoma (Raji), and MDCK1 (Madine–Darby canine kidney). The MDCK1 cells were used between 24 and 26 passages.
(§3) The adherent cells were cultured in Dulbecco’s modified Eagle medium—DMEM (Gibco, Termo Fisher Scientific Inc., Leicestershire, England, UK), supplemented with 10% heat-inactivated fetal bovine serum (FBS, Gibco, Termo Fisher Scientific Inc., Leicestershire, England, UK), 2 mM glutamine, and 100U/0.1mg penicillin/streptomycin. The cells in suspension were cultured in RPMI 1640 (Gibco, Termo Fisher Scientific Inc., Leicestershire, England, UK) medium, supplemented with 10% FBS (Gibco, Termo Fisher Scientific Inc., Leicestershire, England, UK), 2 mM glutamine, 1 mM sodium pyruvate, and 10 mM HEPES. The cells were grown in a humidified atmosphere under the conditions of 37 °C/5% of CO2 gas in the CO2 incubator (IGO 150 CELLlife^TM, JOUAN, Thermo Fisher Scientific, Waltham, MA, USA).
(§4) The adherent cells (HeLa, CaCo-2, MCF-7, and MDCK-1) were plated in 96-well flat bottom plates (Greiner, Frickenhausen, Austria) at a concentration of 2 × 10^4 cells/mL. The suspension cells (Raji, THP-1, CCRF-CEM and Hut78) were plated in 96-well microtiter plates (Sarstead, Newton, NC, USA) at a concentration of 1 × 10^5 cells/mL. Twenty-four hours later, the cells were treated with test agents in […] and incubated for a further 72 h. The working dilutions were freshly prepared on the day of testing. The solvent was also tested for eventual inhibitory activity by adjusting its concentration to be the same as in the working concentrations. After 72 h of incubation, the cell growth rate was evaluated by performing the MTT assay, which detects dehydrogenase activity in viable cells. For this purpose, upon completion of the incubation period, the growth medium was discarded and 50 μL of MTT was added to each well at a concentration of 5 mg/mL. After four hours of incubation at 37 °C, the water insoluble MTT-formazan crystals were dissolved in 150 μL of dimethyl-sulfoxide (DMSO) for the adherent cells and in 10% SDS with 0.01 mol/L HCl for the cells grown in suspension. The absorbance (OD, optical density) was measured on a microplate reader (iMark, BIO RAD, Hercules, CA, USA) at 595 nm.
(§5) The percentage of live cells was calculated as follows: % = OD (sample) − OD (background)/OD (control) − OD (background) × 100.
(§6) The optical density (OD) of the background for the adherent cells is the OD of the MTT solution and DMSO; the OD (background) for the suspension cells is the OD of the culture medium with MTT and 10% SDS with 0.01 mol/L HCl; the OD (control) is the OD of the cells grown without the tested compounds.
(§7) The calculation of the GI50 value curves and QC analysis was performed using the Excel tools and GraphPadPrism software (La Jolla, CA, USA), v. 5.03. Briefly, individual concentration effect curves are generated by plotting the logarithm of the concentration of the tested compounds (X) vs. the corresponding percent inhibition values (Y) using the least squares fit. The best-fit GI50 values are calculated using log (inhibitor) versus normalized response—variable slope equation, where Y Ľ 100/(1 ţ 10 ((LogIC50 _ X) × HillSlope)). The QC criteria parameters (Z0, S:B, R2, HillSlope) were checked for every GI50 curve.

[2] = system: CCRF-CEM (human acute lymphoblastic leukemia) cells; experiment: MTT antiproliferative assay, CCRF-CEM; format: cell-based; conditions: for GI50: Homo sapiens, CCRF-CEM, 72 h, MTT, mean ± SD of three independent experiments
Description: as §1, §2, §3, §4, §5, §6, §7

[3] = system: THP-1 (acute monocytic leukemia) cells; experiment: MTT antiproliferative assay, THP-1; format: cell-based, human; conditions: for GI50: Homo sapiens, THP-1, 72 h, MTT, mean ± SD of three independent experiments, read-out: GI50 THP1
Description: as §1, §2, §3, §4, §5, §6, §7

[4] = system: MCF-7 (human breast adenocarcinoma) cells; experiment: MTT antiproliferative assay, MCF-7; format: cell-based; conditions: MCF7, 72 h, mean ± SD of three independent experiments
Description: as §1, §2, §3, §4, §5, §6, §7

[5] = system: CaCo-2 (human colorectal adenocarcinoma) cells; experiment: MTT antiproliferative assay, CaCo-2; format: cell-based; conditions: 72 h, mean ± SD of three independent experiments
Description: as §1, §2, §3, §4, §5, §6, §7

HuT78 cells [6] = experiment: Flow cytometry analysis of cell cycle, HuT78; format: cell-based, human; conditions: HuT78, 5 μM, 24 h
Description: (§8) To analyze the effects of the selected compounds (5d, 8d, and 12d) on the cell cycle of the HuT78 and THP-1 cells, the cells were seeded in 6-well plates (5 × 10^5 cells per well) and treated for 24 h with the selected compounds 5d and 12d (5 μM). The cells were then collected and fixed in cold 70% ethanol. The fixed samples were stained with 15 µg/mL of propidium iodide (PI) at room temperature and analyzed by flow cytometry (FACS Canto II, BD Biosciences). The results were analyzed using FlowLogic software.
(§9) One-way ANOVA analysis of variance was performed in the MedCalc statistical program for the analysis of the cell cycle. p-values of less than 0.05 were considered to be statistically significant.

[7] = system: Raji (Burkitt lymphoma) cells; experiment: MTT antiproliferative assay, Raji; format: cell-based, human; conditions: for GI50: Homo sapiens, Raji, 72 h, MTT, mean ± SD of three independent experiments
Description: as §1, §2, §3, §4, §5, §6, §7

[8] = system: normal (MDCK1) and tumor cell lines; experiment: MTT antiproliferative assay, ranges stated over several cell lines; format: cell-based; conditions: MDCK1 and carcinoma cell lines; read-out: GI50, normal and carcinoma cells
Description: as §1, §2, §3, §4, §5, §6, §7

[9] = as above; format: cell-based; conditions: human (tumor cell lines) and dog (MDCK1); abstract, range over cell lines; read-out: GI50 range (strong cytotoxic activity)
Description: as §1, §2, §3, §4, §5, §6, §7

THP-1 cells = experiment: Flow cytometry analysis of cell cycle, THP-1; format: cell-based, human; conditions: THP-1, 5 μM, 24 h
Description: as §8, §9

[10] = system: HeLa (human cervical adenocarcinoma) cells; experiment: MTT antiproliferative assay, HeLa; format: cell-based; conditions: 72 h, mean ± SD of three independent experiments
Description: as §1, §2, §3, §4, §5, §6, §7

[11] = system: Hut78 (T-cell lymphoma) cells; experiment: MTT antiproliferative assay, HuT78; format: cell-based, human; conditions: for GI50: Homo sapiens, HuT78, 72 h, MTT, mean ± SD of three independent experiments; for tumor selectivity index (SI) HuT78: with respect to MDCK1 cells
Description: as §1, §2, §3, §4, §5, §6, §7

HuT78 cells [12] = experiment: Mitochondrial membrane potential (∆Ψm), TMRE flow cytometry; format: cell-based, human; conditions: HuT78, 5 μM, 24 h
Description: Changes in the (∆Ψm) were measured using TMRE (tetramethylrhodamine, ethyl ester and perchlorate) dye. In brief, the tested cells (HuT 78) were plated in 6-well plates at a concentration of 5 × 10^5 cells per well and treated with 5 μM of the compounds 5d and 12d. After 24 h of treatment, the cells were collected, centrifuged for 6 min at 1100 rpm, and stained with 200 nM of TMRE dye according to the kit protocol (TMRE Mitochondrial Membrane Potential Assay Kit, abcam, Cambridge, UK). The positive control cells were treated with 20 μM FCCP (carbonyl cyanide-p-trifluoromethoxyphenylhydrazone) for 10 min. The cells were analyzed by flow cytometry (BD FACSCalibur, Becton Dickinson, San Jose, CA, USA) and FlowJo software (FlowJo, LLC, Ashland, OR, USA).

HuT78 cells [13] = experiment: Annexin V-FITC/PI apoptosis detection; format: cell-based, human; conditions: HuT78, 5 μM, 24 h
Description: The proapoptotic potential of compounds 5d and 12d was tested on the HuT78 cells using the Annexin V-FITC Apoptosis Staining/Detection Kit (ab14085; abcam, UK). The cells were plated in 6-well plates at a concentration of 5 × 10^5 cells/well and treated for 24 h with 12d at a concentration of 5 μM. After the incubation period, the cells were collected and centrifuged at 1100 rpm for 6 min, stained according to the manufacturer‘s protocol, and analyzed by flow cytometry (BD FACSCalibur, Becton Dickinson, San Jose, CA, USA) using FlowJo software (FlowJo, LLC, Ashland, OR, USA).

| Structure (SMILES) | GI50 [1] [µM] | GI50 [2] [µM] | GI50 [3] [µM] | GI50 [4] [µM] | GI50 [5] [µM] | GI50 [7] [µM] | GI50 at 72 h [9] [µM] | GI50 [10] [µM] | GI50 [11] [µM] | tumor selectivity index (SI) HuT78 [11] | also measured |
| --- | --- | --- | --- | --- | --- | --- | --- | --- | --- | --- | --- |
| Clc1ccc2c(N3CCN(c4ccc(-c5nc6ccccc6[nH]5)cc4)CC3)ccnc2c1 [Compound 8d, 4-(4-(4-(1H-benzo[d]imidazol-2-yl)phenyl)piperazin-1-yl)-7-chloroquinoline] | > 100 | 5 ± 2.6 | 3.2 ± 1.1 | > 100 | > 100 | 3.8 ± 0.5 | 0.4 to 8 | > 100 | 8.1 ± 4.7 | > 12.3 | tumor selectivity index (SI) CCRF CEM ([2]; with respect to MDCK1 cells): > 20; tumor selectivity index (SI) THP1 ([3]; with respect to MDCK1 cells): > 31.5; changes in the cell cycle (HuT78 cells [6]; vs non-treated cells): no significant changes; tumor selectivity index (SI) Raji ([7]; with respect to MDCK1 cells): > 26.3; GI50 [8]: > 100 µM; changes in the cell cycle (THP-1 cells; vs non-treated cells): no significant changes |
| O=C(NCCNc1ccnc2cc(Cl)ccc12)c1ccc(-c2nc3ccccc3[nH]2)cc1 [Compound 12d, 4-(1H-benzo[d]imidazol-2-yl)-N-(2-(7-chloroquinolin-4-ylamino)ethyl)benzamide] | 100 | 17.2 ± 7.7 | 4 ± 0.8 | 20 ± 7.2 | 16.4 ± 5.6 | 57.7 ± 23.8 | 0.4 to 8 | 100 | 3.5 ± 1.5 | 28.5 | cells with mitochondrial membrane disruption / change in ∆Ψm (HuT78 cells [12]): more than 85%; cells in early apoptosis (HuT78 cells [13]): 3.97%; cells in late stage of apoptosis/necrosis (HuT78 cells [13]): 83.75%; proportion of polyploid giant cancer cells (HuT78 cells [6]): increased proportion; increase of cells in subG0/G1 phase (HuT78 cells [6]; vs control): 46 times; decrease in G0/G1 phase (HuT78 cells [6]; vs non-treated cells): 63.8%; changes in the other phases of the cell cycle (other than subG0/G1) (THP-1 cells): not statistically significant; increase of cells in subG0/G1 phase (THP-1 cells; vs control): 3.4 times |
